The source of these data is ChEMBL document CHEMBL1134625 (J Med Chem, 2001).

Among the targets are Vasopressin V1a receptor (Homo sapiens, UniProt P37288); D(1B) dopamine receptor (Homo sapiens, UniProt P21918); Substance-K receptor (Homo sapiens, UniProt P21452); Translocator protein (Homo sapiens, UniProt P30536); D(1A) dopamine receptor (Homo sapiens, UniProt P21728); Adenosine receptor A1 (Homo sapiens, UniProt P30542).
In assay [1] the target is Melatonin receptor type 1A (Homo sapiens, UniProt P48039).
The target in a further assay is T1, Adenosine receptor A3 (Homo sapiens, UniProt P0DMS8).
T1 sequence (P0DMS8 whole entry): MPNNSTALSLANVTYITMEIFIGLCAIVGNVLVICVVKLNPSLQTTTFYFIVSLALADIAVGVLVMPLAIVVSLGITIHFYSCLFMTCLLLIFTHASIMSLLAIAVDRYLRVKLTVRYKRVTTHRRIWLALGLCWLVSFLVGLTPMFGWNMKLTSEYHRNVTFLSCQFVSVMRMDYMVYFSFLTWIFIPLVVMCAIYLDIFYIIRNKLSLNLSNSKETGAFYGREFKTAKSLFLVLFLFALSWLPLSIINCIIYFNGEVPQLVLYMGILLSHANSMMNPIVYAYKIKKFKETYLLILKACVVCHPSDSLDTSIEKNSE

Assay [2] concerns the target T2, Adrenergic receptor alpha-1 (Homo sapiens, UniProt P35348+P25100+P35368).
T2 sequence (P35348 whole entry): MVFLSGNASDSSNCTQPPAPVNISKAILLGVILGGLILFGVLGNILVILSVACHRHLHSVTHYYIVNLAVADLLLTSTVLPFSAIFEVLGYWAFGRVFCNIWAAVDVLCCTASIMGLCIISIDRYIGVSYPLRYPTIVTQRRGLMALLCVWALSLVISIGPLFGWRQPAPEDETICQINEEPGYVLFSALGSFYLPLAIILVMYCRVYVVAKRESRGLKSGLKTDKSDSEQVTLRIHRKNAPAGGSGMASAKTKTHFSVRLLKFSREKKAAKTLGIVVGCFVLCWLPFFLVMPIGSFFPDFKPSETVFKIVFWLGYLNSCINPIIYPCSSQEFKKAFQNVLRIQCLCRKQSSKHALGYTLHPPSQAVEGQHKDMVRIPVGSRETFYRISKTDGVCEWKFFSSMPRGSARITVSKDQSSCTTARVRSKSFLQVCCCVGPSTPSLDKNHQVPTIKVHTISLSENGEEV
T2 sequence (P25100 whole entry): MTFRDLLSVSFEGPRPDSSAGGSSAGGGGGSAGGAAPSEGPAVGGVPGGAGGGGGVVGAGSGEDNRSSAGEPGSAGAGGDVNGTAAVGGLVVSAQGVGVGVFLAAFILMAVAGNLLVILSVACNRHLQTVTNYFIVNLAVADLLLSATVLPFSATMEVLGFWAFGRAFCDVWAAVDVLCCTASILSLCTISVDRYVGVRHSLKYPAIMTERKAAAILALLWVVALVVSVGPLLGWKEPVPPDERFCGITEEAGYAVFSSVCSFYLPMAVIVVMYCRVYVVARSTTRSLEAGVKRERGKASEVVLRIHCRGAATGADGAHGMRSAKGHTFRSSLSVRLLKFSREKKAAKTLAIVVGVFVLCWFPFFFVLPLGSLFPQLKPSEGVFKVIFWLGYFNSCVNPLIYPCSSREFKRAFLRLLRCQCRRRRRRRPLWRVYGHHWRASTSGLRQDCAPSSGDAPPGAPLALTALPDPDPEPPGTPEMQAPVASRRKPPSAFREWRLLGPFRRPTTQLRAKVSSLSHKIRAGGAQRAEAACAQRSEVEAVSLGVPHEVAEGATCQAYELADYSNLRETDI
T2 sequence (P35368 whole entry): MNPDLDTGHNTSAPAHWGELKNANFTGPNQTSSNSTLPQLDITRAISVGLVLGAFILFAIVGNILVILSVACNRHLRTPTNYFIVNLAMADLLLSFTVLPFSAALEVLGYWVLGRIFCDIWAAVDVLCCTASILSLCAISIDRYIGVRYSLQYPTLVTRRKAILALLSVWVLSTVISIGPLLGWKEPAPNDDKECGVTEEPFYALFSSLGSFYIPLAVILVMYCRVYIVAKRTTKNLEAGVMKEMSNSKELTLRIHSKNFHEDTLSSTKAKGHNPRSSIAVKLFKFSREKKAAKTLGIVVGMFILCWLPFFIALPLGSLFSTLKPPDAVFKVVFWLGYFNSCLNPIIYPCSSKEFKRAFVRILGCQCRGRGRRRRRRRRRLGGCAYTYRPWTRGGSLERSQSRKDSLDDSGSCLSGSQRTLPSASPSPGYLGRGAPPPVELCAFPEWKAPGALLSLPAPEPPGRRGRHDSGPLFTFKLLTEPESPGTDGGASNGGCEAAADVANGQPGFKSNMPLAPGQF
In kind it is protein assay.

The target of assay [3] is 5-hydroxytryptamine receptor 1B (Homo sapiens, UniProt P28222).
The target of assay [4] is T3, 5-hydroxytryptamine receptor 1A (Homo sapiens, UniProt P08908).
T3 sequence (P08908 whole entry): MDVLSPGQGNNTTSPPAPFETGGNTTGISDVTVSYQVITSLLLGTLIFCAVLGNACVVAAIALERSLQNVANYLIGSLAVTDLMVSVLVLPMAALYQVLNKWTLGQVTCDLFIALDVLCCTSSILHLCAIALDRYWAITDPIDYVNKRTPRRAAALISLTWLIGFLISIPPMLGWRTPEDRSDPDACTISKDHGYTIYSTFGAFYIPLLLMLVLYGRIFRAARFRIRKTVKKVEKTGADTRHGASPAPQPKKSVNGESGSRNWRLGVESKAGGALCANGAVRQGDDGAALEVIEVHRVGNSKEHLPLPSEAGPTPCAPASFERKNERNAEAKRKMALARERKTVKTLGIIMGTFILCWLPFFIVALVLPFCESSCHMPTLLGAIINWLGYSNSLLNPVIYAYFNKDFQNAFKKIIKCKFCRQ

Assay [5] deals with Sodium-dependent noradrenaline transporter (Homo sapiens, UniProt P23975).
Chain of Sodium-dependent noradrenaline transporter (P23975 whole entry): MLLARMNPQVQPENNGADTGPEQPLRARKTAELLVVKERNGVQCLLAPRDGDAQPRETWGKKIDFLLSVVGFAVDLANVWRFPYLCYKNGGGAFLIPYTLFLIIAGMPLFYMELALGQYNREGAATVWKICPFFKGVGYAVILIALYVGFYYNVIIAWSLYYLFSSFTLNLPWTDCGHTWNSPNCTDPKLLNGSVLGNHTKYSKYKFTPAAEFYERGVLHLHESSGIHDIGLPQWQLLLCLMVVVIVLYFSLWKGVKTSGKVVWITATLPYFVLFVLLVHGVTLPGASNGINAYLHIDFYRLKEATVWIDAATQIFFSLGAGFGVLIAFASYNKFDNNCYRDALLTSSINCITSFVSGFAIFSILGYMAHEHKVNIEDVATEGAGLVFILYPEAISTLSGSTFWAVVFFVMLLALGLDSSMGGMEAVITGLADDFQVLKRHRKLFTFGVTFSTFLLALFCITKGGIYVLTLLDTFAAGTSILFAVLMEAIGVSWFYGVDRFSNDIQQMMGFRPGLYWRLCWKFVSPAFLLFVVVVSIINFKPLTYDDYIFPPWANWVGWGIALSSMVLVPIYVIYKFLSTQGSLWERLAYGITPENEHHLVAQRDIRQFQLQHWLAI

Chain of Adenosine receptor A1 (P30542 whole entry): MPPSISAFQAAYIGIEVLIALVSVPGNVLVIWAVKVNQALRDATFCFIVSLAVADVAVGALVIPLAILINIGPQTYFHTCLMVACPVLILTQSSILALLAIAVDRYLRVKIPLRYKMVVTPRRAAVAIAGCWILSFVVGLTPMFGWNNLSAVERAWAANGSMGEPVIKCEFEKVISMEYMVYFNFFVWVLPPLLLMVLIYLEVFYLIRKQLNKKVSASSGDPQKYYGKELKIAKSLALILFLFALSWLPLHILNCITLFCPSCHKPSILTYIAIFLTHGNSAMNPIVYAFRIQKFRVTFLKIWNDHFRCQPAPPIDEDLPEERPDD
Chain of Vasopressin V1a receptor (P37288 whole entry): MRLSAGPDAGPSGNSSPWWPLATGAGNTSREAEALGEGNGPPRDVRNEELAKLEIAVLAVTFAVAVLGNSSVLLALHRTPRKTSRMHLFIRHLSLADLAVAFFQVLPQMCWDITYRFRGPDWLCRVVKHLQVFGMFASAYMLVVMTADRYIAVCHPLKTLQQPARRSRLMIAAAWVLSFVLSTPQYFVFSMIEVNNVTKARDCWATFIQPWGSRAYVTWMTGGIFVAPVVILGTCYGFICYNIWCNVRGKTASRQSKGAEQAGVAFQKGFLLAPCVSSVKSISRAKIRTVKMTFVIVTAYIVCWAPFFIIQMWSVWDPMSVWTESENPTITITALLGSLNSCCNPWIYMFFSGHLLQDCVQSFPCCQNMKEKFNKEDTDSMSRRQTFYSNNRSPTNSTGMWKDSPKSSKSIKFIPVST
Chain of Translocator protein (P30536 whole entry): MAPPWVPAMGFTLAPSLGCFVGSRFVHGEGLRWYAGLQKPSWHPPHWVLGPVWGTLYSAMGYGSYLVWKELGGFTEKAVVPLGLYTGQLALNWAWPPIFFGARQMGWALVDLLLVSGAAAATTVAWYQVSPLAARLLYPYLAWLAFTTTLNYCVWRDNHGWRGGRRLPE
Chain of Substance-K receptor (P21452 whole entry): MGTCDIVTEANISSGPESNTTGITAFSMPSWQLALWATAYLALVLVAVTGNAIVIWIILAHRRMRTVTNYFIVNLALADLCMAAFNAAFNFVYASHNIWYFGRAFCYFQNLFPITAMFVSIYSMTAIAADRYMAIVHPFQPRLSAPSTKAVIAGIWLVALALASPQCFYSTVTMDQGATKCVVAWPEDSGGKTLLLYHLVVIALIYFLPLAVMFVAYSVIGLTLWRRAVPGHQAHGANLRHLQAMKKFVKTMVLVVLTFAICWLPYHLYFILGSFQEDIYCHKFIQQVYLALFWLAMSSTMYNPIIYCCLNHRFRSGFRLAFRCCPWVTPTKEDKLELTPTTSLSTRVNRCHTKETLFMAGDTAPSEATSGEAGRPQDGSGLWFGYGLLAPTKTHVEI
Chain of D(1B) dopamine receptor (P21918 whole entry): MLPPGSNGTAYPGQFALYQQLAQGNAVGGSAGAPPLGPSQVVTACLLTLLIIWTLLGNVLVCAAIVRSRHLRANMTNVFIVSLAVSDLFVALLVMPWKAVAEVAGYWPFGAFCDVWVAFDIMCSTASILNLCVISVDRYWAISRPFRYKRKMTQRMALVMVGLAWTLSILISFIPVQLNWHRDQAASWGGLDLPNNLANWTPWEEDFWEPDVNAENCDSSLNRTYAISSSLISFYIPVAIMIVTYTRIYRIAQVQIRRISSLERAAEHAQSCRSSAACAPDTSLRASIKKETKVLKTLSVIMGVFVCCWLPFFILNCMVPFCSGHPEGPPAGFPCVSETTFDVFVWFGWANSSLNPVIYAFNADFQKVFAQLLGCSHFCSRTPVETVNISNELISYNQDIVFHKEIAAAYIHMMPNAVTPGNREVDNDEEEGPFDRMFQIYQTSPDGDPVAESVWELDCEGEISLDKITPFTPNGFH
Chain of 5-hydroxytryptamine receptor 1B (P28222 whole entry): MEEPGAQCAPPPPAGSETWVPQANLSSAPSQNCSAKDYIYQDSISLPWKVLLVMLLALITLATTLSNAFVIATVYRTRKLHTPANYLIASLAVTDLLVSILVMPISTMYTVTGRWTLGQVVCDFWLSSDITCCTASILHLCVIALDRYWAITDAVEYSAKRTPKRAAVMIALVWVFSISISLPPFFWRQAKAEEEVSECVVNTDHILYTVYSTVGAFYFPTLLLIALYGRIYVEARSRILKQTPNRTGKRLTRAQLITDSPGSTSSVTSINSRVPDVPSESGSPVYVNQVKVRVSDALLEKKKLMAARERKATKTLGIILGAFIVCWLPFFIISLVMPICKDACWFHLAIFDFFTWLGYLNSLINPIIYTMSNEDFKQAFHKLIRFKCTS
Chain of Melatonin receptor type 1A (P48039 whole entry): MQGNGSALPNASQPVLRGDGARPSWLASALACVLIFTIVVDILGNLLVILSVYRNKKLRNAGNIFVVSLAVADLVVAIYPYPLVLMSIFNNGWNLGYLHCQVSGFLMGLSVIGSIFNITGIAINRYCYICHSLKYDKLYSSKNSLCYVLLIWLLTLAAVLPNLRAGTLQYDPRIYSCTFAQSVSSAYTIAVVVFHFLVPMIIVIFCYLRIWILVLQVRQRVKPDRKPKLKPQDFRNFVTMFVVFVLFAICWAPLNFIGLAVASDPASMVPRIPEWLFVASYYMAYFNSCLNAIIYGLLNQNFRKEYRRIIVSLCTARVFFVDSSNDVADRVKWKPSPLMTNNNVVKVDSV
Chain of D(1A) dopamine receptor (P21728 whole entry): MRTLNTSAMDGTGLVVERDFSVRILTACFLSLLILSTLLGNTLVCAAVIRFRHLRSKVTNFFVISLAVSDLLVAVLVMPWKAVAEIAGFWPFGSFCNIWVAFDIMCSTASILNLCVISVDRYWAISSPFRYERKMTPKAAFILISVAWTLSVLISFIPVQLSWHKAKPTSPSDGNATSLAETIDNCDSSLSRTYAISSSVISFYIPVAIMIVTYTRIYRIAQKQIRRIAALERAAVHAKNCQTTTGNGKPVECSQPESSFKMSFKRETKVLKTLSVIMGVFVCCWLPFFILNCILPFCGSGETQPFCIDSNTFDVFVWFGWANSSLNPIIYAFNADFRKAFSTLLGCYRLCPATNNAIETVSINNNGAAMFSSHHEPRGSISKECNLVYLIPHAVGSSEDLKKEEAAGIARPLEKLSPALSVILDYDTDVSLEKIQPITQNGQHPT

As to `O=C(OCc1cc2c(cc1Cl)OCO2)N1CCC(n2c(O)nc3ccccc32)CC1`, the IC50 against Vasopressin V1a receptor turned out to be 2.22 µM; on D(1B) dopamine receptor, 4.89 µM; against Substance-K receptor, 4.42 µM; at Translocator protein, 1.04 µM; in assay [1], 1.74 µM; at Adenosine receptor A3, 1.78 µM. The IC50 in [2] was found to be 1.34 µM; in assay [3] it was 0.708 µM; on D(1A) dopamine receptor, 7.58 µM; against Adenosine receptor A1 it was 2.64 µM; in [4], 4.65 µM; in assay [5], 3.02 µM.

Broadly, the IC50 is the concentration at which inhibition is half-maximal. High values mean weaker potency, low ones greater potency.
